Tests used:
[1] = target: T1, human PPARγ-LBD (coactivator peptide recruitment) (Homo sapiens, UniProt P37231); experiment: LanthaScreen TR-FRET coactivator peptide recruitment assay; assay type: biochemical
T1 construct: incubated with GST-fused human PPARγ-LBD, terbium-labeled anti-GST antibody; purchased Invitrogen
T1 sequence (P37231 238-503 limits assumed): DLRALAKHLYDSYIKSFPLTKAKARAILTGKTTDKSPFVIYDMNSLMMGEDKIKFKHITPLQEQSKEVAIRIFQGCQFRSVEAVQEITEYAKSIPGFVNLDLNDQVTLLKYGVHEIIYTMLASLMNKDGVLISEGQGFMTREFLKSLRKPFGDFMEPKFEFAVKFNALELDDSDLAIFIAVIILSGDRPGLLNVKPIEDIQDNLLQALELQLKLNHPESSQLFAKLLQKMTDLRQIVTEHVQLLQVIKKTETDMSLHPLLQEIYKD
Description: PPARγ coregulator peptide interaction assay was performed by the LanthaScreen TR-FRET PPARγ Coactivator Assay Kit (Invitrogen) according to the manufacturer's instructions. Serial concentrations of compounds were incubated with GST-fused human PPARγ-LBD, terbium-labeled anti-GST antibody and fluorescein-labeled peptide for 4 h. The measurement and data calculation were as above.

MC3T3-E1 preosteoblasts = experiment: Osteoblastic differentiation of MC3T3-E1 cells (Alizarin red S, Alp activity); assay type: cell-based; conditions: F12016 1, 10, 30 μM
Description: MC3T3-E1 cells were cultured in α-MEM to confluency in 24-well plates and then cultured in differentiation medium (α-MEM supplemented with 200 μM ascorbic acid and 10 mM β-glycerophosphate) for 7, 14, and 21 days, which was replaced every 3 days. The cells were treated with DMSO, rosiglitazone, or F12016 at the start of differentiation. At day 8, 15 and 22, total RNA was isolated, and real-time PCR was performed as described below.
Mature osteoblasts were stained with Alizarin red S and Alp activity were measured at day 22. In brief, cells were fixed with 75% ethanol and stained with 40 mM Alizarin red S solution (pH 4.1–4.3) for 10 min. For Alp assay, the cells were harvested and sonicated on ice with two 30s-pulses. Supernatant of lysate was incubated with isopyknic 1.0 mg/ml pNPP (Sigma–aldrich) solution (1 M diethanolamine buffer, 0.5 mM magnesium chloride) for 30 min at 37°C. The reaction was measured at 405 nm. Relative ALP activity was normalized to the protein concentration.

diabetic KKAy mice = experiment: Diabetic KKAy mice, 21 days treatment (fasting blood glucose, OGTT, ITT, body weight)
Description: Fasting blood glucose was measured with Onetoch Ultra Teststrip (Johnson & Johnson) at day 0, 3, 7, 14, 21, and body weight were monitored during these days.
After 14 days of treatment, oral glucose tolerance test (OGTT) was performed. Mice were fasted for 6 h with free access to water. 2 g/kg of glucose was given by gavage and blood glucose was measured at 0, 30, 60, 90, and 120 min.
After 21 days of feeding, insulin tolerance test (ITT) was carried out. Mice were fasted for 4 h before being injected 1 U/kg of recombinant human insulin (Novo Nordisk) subcutaneously, and blood glucose was measured at 0, 40, 90, and 120 min after insulin injection.

L02 normal hepatocytes = experiment: 2-NBDG glucose uptake assay in L02 cells; assay type: cell-based; conditions: 24 h, absence or presence of insulin
Description: Glucose uptake activity was determined by measuring the uptake of 2-NBDG (2-(N-(7-nitrobenz-2-oxa-1, 3-diazol-4-yl)amino)-2-deoxyglucose, Invitrogen). […] Glucose uptake was initiated by addition of 1 mM 2-NBDG diluted in PBS. After 1 h, it was terminated by removing the contents of the wells and washing the cells with PBS. The glucose uptake was quantified by measuring the fluorescence intensity of cell lysates (prepared with neutral lysis buffer) at 485 nm excitation and 528 nm emission, and normalized to the corresponding protein content.

PPARγ LBD mutants = assay type: cell-based, human; conditions: compared with wild-type PPARγ LBD
Description: All chemicals were purchased from Sigma-Aldrich (St. Louis, MO, USA). All medium and serum were obtained from Gibco (Invitrogen). […] Mutations in pBIND-PPARγ-LBD were created by site-directed mutagenesis using the Fast Mutagenesis System (TransGen Biotech, Beijing, China).
(§1) The determination of nuclear receptor activation was performed as previously. Briefly, HEK293T cells were transfected with GAL4-pGL4-luc reporter plasmid and pBIND-PPARγ-LBD expression plasmid using Lipofectamine 2000 (Invitrogen) for 6 h before treatment with compounds for 20–24 h. Activity was determined by the Luciferase Assay System (Promega).

human PPARγ-LBD = target: T2, human PPARγ-LBD (Homo sapiens, UniProt P37231); experiment: GAL4-PPARγ-LBD luciferase reporter gene assay in HEK293T cells; assay type: cell-based
T2 construct: expressed in transfected cells; host or cells: HEK293T
T2 sequence (P37231 172-476 isoform P37231-2): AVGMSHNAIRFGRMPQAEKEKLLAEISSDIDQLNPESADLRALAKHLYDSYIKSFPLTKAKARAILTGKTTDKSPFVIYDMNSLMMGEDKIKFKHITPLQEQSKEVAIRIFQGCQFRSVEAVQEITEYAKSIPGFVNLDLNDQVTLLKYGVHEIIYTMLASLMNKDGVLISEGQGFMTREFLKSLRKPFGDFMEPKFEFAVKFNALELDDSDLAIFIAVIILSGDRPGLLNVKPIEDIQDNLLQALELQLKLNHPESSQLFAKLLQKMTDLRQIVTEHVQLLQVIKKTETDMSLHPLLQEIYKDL
Description: as §1

LXRα = target: T3, LXRα (Homo sapiens, UniProt Q13133); experiment: Receptor-specific transactivation, GAL4-LBD reporter in HEK293T cells; assay type: cell-based; conditions: 30 μM F12016
T3 construct: expressed in transfected cells; host or cells: HEK293T
T3 sequence (Q13133 209-447 limits assumed): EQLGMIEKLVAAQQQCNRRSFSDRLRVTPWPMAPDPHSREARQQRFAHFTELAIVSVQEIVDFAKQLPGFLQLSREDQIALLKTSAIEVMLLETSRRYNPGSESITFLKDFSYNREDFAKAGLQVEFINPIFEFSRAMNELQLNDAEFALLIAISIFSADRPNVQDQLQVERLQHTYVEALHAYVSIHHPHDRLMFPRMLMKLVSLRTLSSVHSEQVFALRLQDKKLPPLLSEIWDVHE
Description: HEK293T cells were cotransfected with a GAL4-pGL4-luc reporter and plasmids encoding various nuclear receptor LBDs fused with the GAL4 DNA-binding domain. […] LXR, liver X receptor; RXR, retinoid X receptor.
as §1

## 2-[2-(1, 2-dimethyl-1H-indol-3-yl)-2-oxo-acetylamino]-benzamide [Compound F12016]
[1]; cofactor peptide CBP
  EC50/IC50 CBP: 349 nM
[1]; cofactor peptide CBP, maximum recruitment relative to rosiglitazone
  Efficacy CBP: 10%
[1]; cofactor peptide PGC-1α
  EC50/IC50 PGC-1α: 21.81 µM
[1]; cofactor peptide PGC-1α, maximum recruitment relative to rosiglitazone
  Efficacy PGC-1α: 57%
[1]; cofactor peptide RAP250
  EC50/IC50 RAP250: 5.765 µM
[1]; cofactor peptide RAP250, maximum recruitment relative to rosiglitazone
  Efficacy RAP250: 25%
[1]; cofactor peptide SRC1
  EC50/IC50 SRC1: 17.65 µM
[1]; cofactor peptide SRC1, maximum recruitment relative to rosiglitazone
  Efficacy SRC1: 26%
[1]; cofactor peptide SRC3
  EC50/IC50 SRC3: 15.06 µM
[1]; cofactor peptide SRC3, maximum recruitment relative to rosiglitazone
  Efficacy SRC3: 23%
[1]; cofactor peptide TIF2
  EC50/IC50 TIF2: 6.437 µM
[1]; cofactor peptide TIF2, maximum recruitment relative to rosiglitazone
  Efficacy TIF2: 17%
[1]; cofactor peptide TRAP220
  EC50/IC50 TRAP220: 5.132 µM
[1]; cofactor peptide TRAP220, maximum recruitment relative to rosiglitazone
  Efficacy TRAP220: 17%
[1]; span over the three cofactors
  recruitment of SRC 1 and 3 and RAP250 to PPARγ: 22–27 % of rosiglitazone
MC3T3-E1 preosteoblasts
  alkaline phosphatase (Alp) activity: less reductions in mineralization and Alp activity
  mineralization (Alizarin Red S): less reductions in mineralization
Diabetic KKAy mice; F12016 75 mg/kg by gavage once daily, day 3, 7, 14 and 21, vs vehicle
  fasting blood glucose: significantly reduced fasting blood glucose
Diabetic KKAy mice; after 14 days of treatment, 2 g/kg glucose, F12016 75 mg/kg
  glucose tolerance (OGTT): significantly improved glucose tolerance
Diabetic KKAy mice; after 21 days, insulin 1 IU/kg, F12016 75 mg/kg, rosiglitazone 5 mg/kg
  blood glucose after insulin injection (ITT): significantly reduced blood glucose
Diabetic KKAy mice; after 21 days, F12016 75 mg/kg, rosiglitazone 5 mg/kg, vs vehicle
  average body weight: much lower than that of vehicle controls
L02 normal hepatocytes
  insulin sensitivity and glucose transport (2-NBDG): significantly increased insulin sensitivity and promoted glucose transport
PPARγ LBD mutants
  activation of R288A, L340A and S342A mutants: reduced the ability of F12016 to activate PPARγ
  activation of S289A, H323A, H449A and Y473A mutants: almost the same activity as the wild-type PPARγ LBD
Human PPARγ-LBD; 30 μM F12016, HEK293T
  transcriptional activity of PPARγ: significantly induced transcriptional activity of PPARγ
Human PPARγ-LBD; HEK293T, GAL4-PPARγ-LBD reporter
  maximal activation of GAL4-PPARγ: approximately 4 fold
Human PPARγ-LBD; HEK293T, GAL4-PPARγ-LBD reporter, read-out: PPARγ WT EC50 (activation of GAL4-PPARγ)
  EC50: 3.24 µM
Human PPARγ-LBD; activation relative to rosiglitazone (RGZ)
  PPARγ WT (RGZ %): 29.08%
Human PPARγ-LBD; in presence of 1 μM rosiglitazone, reporter assay
  concentration antagonizing rosiglitazone-dependent PPARγ activation: ≥ 2.5 µM
LXRα
  transactivation of LXRα: no effects
